Assays:
HepAD38 cells = assay: Cell viability assay (AlamarBlue) in HepAD38 cells; conditions: HepAD38 cells in the presence of 0.3 μg/ml tetracycline, six days incubation
HBV core protein = HBV core protein (UniProt P03146); type: biochemical; conditions: BODIPY-FL labelled core protein, assembly started with NaCl, read after 6 min; read-out: Assembly Activity (IC50)
Procedure, shortened: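 Compounds tested at 8 concentrations in 0.5-log steps from 100, 31.6 or 10 μM against 1.0–2.0 μM BODIPY-FL-labelled Cys150 core dimers (residues 1–149), 50 mM HEPES pH 7.5. NaCl ([…] final) triggered assembly; quenching read at 6 min, 477/525 nm, with 2.5 M and 0 M NaCl as controls; EC50 by nonlinear fit.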

HBV = assay: Determination of HBV DNA from the supernatants of HepAD38 cells (anti-HBV activity); type: cell-based, hepatitis B virus; conditions: HBV DNA in HepAD38 supernatant at day 6; read-out: Cell Activity (EC50)
Procedure, shortened: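 EC50 values were obtained by non-linear regression of HBV DNA copy numbers measured by qPCR against pCH-9/3091 plasmid standards. The DNA came from filtered supernatants collected on day 6. Before that, tetracycline-withdrawn HepAD38 cells had been exposed to serial half-log compound dilutions, with tetracycline-treated cells as the non-producing control.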

Sequence of HBV core protein (P03146 whole entry, looked up, the tested form may be a part): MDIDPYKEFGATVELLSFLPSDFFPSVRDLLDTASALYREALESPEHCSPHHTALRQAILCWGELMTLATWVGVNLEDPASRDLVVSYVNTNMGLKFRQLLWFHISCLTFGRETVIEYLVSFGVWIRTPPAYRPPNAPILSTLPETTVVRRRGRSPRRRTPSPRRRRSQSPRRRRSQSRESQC

Compound	CC50 (HepAD38 cells)	IC50 (HBV core protein)	EC50 (HBV)
O=C(c1cc2c(Cl)c(F)ccc2[nH]1)N1CCc2nc(N[C@H]3C[C@H](O)C3)sc2C1 [Example 355, (1r,3r)-3-{[5-(4-chloro-5-fluoro-1H-indole-2-carbonyl)-4H,5H,6H,7H-[1,3]thiazolo[5,4-c]pyridin-2-yl]amino}cyclobutan-1-ol]	> 10 µM	< 5 µM	< 1 µM
O=C(c1cc2c(Cl)cc(F)cc2[nH]1)N1CCc2nc(N[C@H]3C[C@H](O)C3)sc2C1 [Example 356, (1r,3r)-3-{[5-(4-chloro-6-fluoro-1H-indole-2-carbonyl)-4H,5H,6H,7H-[1,3]thiazolo[5,4-c]pyridin-2-yl]amino}cyclobutan-1-ol]	> 10 µM	< 5 µM	< 1 µM
O=C(c1cc2ccc(Cl)cc2[nH]1)N1CCc2nc(N[C@H]3C[C@H](O)C3)sc2C1 [Example 357, (1r,3r)-3-{[5-(6-chloro-1H-indole-2-carbonyl)-4H,5H,6H,7H-[1,3]thiazolo[5,4-c]pyridin-2-yl]amino}cyclobutan-1-ol]	> 10 µM	< 5 µM	< 1 µM
O=C(Nc1nc2c(s1)CN(C(=O)c1cc3ccccc3[nH]1)CC2)C1[C@H]2COC[C@@H]12 (stereo partly drawn) [Example 358, (1R,5S,6R)—N-[5-(1H-indole-2-carbonyl)-4H,5H,6H,7H-[1,3]thiazolo[5,4-c]pyridin-2-yl]-3-oxabicyclo[3.1.0]hexane-6-carboxamide]	> 10 µM	< 5 µM	< 1 µM
O=C(Nc1nc2c(s1)CN(C(=O)c1cc3ccccc3[nH]1)CC2)C1[C@H]2CNC[C@@H]12 (stereo partly drawn) [Example 359, (1R,5S,6R)—N-[5-(1H-indole-2-carbonyl)-4H,5H,6H,7H-[1,3]thiazolo[5,4-c]pyridin-2-yl]-3-azabicyclo[3.1.0]hexane-6-carboxamide]	> 10 µM	< 5 µM	< 1 µM
O=C(Nc1nc2c(s1)CN(C(=O)c1cc3ccccc3[nH]1)CC2)C1[C@H]2CNC[C@@H]12 (stereo partly drawn) [Example 360, (1R,5S,6S)—N-[5-(1H-indole-2-carbonyl)-4H,5H,6H,7H-[1,3]thiazolo[5,4-c]pyridin-2-yl]-3-azabicyclo[3.1.0]hexane-6-carboxamide]	> 10 µM	< 5 µM	< 1 µM
Cc1cc(F)cc2[nH]c(C(=O)N3CCc4nc(N[C@H]5C[C@H](O)C5)sc4C3)cc12 [Example 379, (1r,3r)-3-{[5-(6-fluoro-4-methyl-1H-indole-2-carbonyl)-4H,5H,6H,7H-[1,3]thiazolo[5,4-c]pyridin-2-yl]amino}cyclobutan-1-ol]	> 10 µM		< 1 µM
CCc1cccc2[nH]c(C(=O)N3CCc4nc(N[C@H]5C[C@H](O)C5)sc4C3)cc12 [Example 380, (1r,3r)-3-{[5-(4-ethyl-1H-indole-2-carbonyl)-4H,5H,6H,7H-[1,3]thiazolo[5,4-c]pyridin-2-yl]amino}cyclobutan-1-ol]	> 10 µM		< 1 µM
O=C(c1cc2c(Cl)cccc2[nH]1)N1CCc2nc(N[C@H]3C[C@H](O)C3)sc2C1 [Example 381, (1r,3r)-3-{[5-(4-chloro-1H-indole-2-carbonyl)-4H,5H,6H,7H-[1,3]thiazolo[5,4-c]pyridin-2-yl]amino}cyclobutan-1-ol]	> 10 µM		< 1 µM
O=C(c1cc2ccccc2[nH]1)N1CCc2nc(N[C@H]3C[C@@H](O)C3)sc2C1 [Example 388, (1s,3s)-3-{[5-(1H-indole-2-carbonyl)-4H,5H,6H,7H-[1,3]thiazolo[5,4-c]pyridin-2-yl]amino}cyclobutan-1-ol]	> 10 µM		< 1 µM
O=C(c1cc2c(F)c(F)ccc2[nH]1)N1CCc2nc(N[C@H]3CC[C@@H](O)CC3)sc2C1 [Example 395, (1s,4s)-4-{[5-(4,5-difluoro-1H-indole-2-carbonyl)-4H,5H,6H,7H-[1,3]thiazolo[5,4-c]pyridin-2-yl]amino}cyclohexan-1-ol]	> 10 µM	< 5 µM	< 1 µM
O=C(c1cc2ccccc2[nH]1)N1CCc2nc(N[C@H]3C[C@H](O)C3)sc2C1 [Example 397, (1r,3r)-3-{[5-(1H-indole-2-carbonyl)-4H,5H,6H,7H-[1,3]thiazolo[5,4-c]pyridin-2-yl]amino}cyclobutan-1-ol]	> 10 µM	< 5 µM	< 1 µM
(2S)-2-amino-3-{[5-(1H-indole-2-carbonyl)-4H,5H,6H,7H-[1,3]thiazolo[5,4-c]pyridin-2-yl]carbamoyl}propanoic acid [Example 444]	> 10 µM	5 to 10 µM	< 1 µM
(2S)-2-amino-4-{[5-(1H-indole-2-carbonyl)-4H,5H,6H,7H-[1,3]thiazolo[5,4-c]pyridin-2-yl]carbamoyl}butanoic acid [Example 354]	> 10 µM	< 5 µM	< 1 µM
N-[5-(1H-indole-2-carbonyl)-4H,5H,6H,7H-[1,3]thiazolo[5,4-c]pyridin-2-yl]piperidine-4-carboxamide hydrochloride [Example 385]	> 10 µM		< 1 µM
tert-butyl 3-{[5-(1H-indole-2-carbonyl)-4H,5H,6H,7H-[1,3]thiazolo[5,4-c]pyridin-2-yl]carbamoyl}azetidine-1-carboxylate [Example 387]	> 10 µM		< 1 µM
tert-butyl 4-{[5-(1H-indole-2-carbonyl)-4H,5H,6H,7H-[1,3]thiazolo[5,4-c]pyridin-2-yl]carbamoyl}piperidine-1-carboxylate [Example 384]	> 10 µM		< 1 µM

From patent US11267825B2 (AICURIS GMBH & CO. KG, priority 2017, dated 2022)
